# Test results taken from patent publication US8328898B2, “Environment-friendly carbon-nano synergistic complex fertilizers” (priority 2007, dated 2012).
# Columns and labels:
# winter wheat Jing411 = assay: Winter wheat field experiment, Agricultural Science Research Institute of Daxing District; type: in vivo; settings: for Production increasing rate (comparing with control): in vivo; for Average production per mu: winter wheat Jing411
# Text: (§1) Experiments below are preceded with general fertilizing amount, and using the same fertilizing amount and the same fertilizing methods.
# corn Jiyuan No. 1 = assay: Corn field experiment; type: in vivo; settings: for Ear weight in the whole area: fresh weight of corn
# Text: Experiments below are preceded with general fertilizing amount, and using the same fertilizing amount and the same fertilizing methods. 2.
# eggplant = assay: Production increasing effects on eggplant (Experiment 9); type: in vivo
# winter wheat 9428 = assay: Winter wheat field experiment, Qingyundian Station; type: in vivo; settings: for Production per mu: winter wheat 9428
# Text: as §1
# [1] = tested on: winter wheat Beinong 9549; assay: Winter wheat field experiment, demonstration park of high quality agricultural products center; type: in vivo; settings: for Increase rate: vs control; for Average production per mu: winter wheat Beinong 9549, repeated 3 times
# Procedure: Experiments below are preceded with general fertilizing amount, and using the same fertilizing amount and the same fertilizing methods. […] The Agricultural Science Research Institute of […] District, Beijing • D. Qingyundian Station, the Agricultural Science Research Institute of […] District, Bejing • (2) Experimental protocols and production determination of winter wheat in every experimental site […] Production is determined on Jun.
# [2] = not told
# tomato Jinpengshengguan = assay: Tomato production experiment (Experiment 11); type: in vivo
# Ventura celery = assay: Celery production experiment
# [3] = comparing with ordinary ammonium bicarbonate (ABC)
# [4] = eggplant seedling, 0.0165 kg fertilizer per plant
compound,measurement,setting,value
ammonium bicarbonate [ABC],Production increasing rate (comparing with control),winter wheat Jing411,3.33%
same,Average production per mu,winter wheat Jing411,338.69 kg
same,Ear weight in the whole area,corn Jiyuan No. 1,39.6 kg
same,Production increasing rate comparing with ammonium bicarbonate,corn Jiyuan No. 1; in vivo,0%
same,Production increasing rate comparing with urea,corn Jiyuan No. 1; in vivo,4.07%
same,Increasing rate of eggplant fruit weight,eggplant; [3],0%
same,Increasing rate of leaf number,eggplant; [3],0%
same,Increasing rate of plant height,eggplant; [3],0%
same,Leaf number 1,eggplant; eggplant seedling,15 number
same,Leaf number 2,eggplant; eggplant seedling,33 number
same,Leaf number 3,eggplant; eggplant seedling,4 number
same,Leaf number 4,eggplant; eggplant seedling,26 number
same,Leaf number 5,eggplant; eggplant seedling,28 number
same,Leaf number 6,eggplant; eggplant seedling,15 number
same,Leaf number 7,eggplant; eggplant seedling,28 number
same,Plant height 1,eggplant; [4],64 cm
same,Plant height 2,eggplant; [4],64 cm
same,Plant height 3,eggplant; [4],32 cm
same,Plant height 4,eggplant; [4],75 cm
same,Plant height 5,eggplant; [4],65 cm
same,Plant height 6,eggplant; [4],61 cm
same,Plant height 7,eggplant; [4],62 cm
same,Average height,"eggplant; eggplant seedling, 7 plants",56.72 cm
same,Average leaf number,"eggplant; eggplant seedling, 7 plants",21.28 number
same,Eggplant fruit weight,eggplant; in vivo,1.46 kg
same,Increasing weight of eggplant fruit,eggplant; over ordinary ammonium bicarbonate (ABC),0 kg
same,Production increasing rate,winter wheat 9428; control = 0,3.12%
same,Production per mu,winter wheat 9428,397 kg
same,Increase rate,[1],15.63%
same,Average production per mu,[1],481 kg
"NC(N)=O [URA, urea]",Average of N2O—N annual emission flux,[2],71.92 μg N2O/m^3-h
same,N2O—N annual emission flux range,[2],−197-2867 μg N2O/m^3-h
same,N2O—N emission flux/nitrogen fertilizer applied,[2],1.98%
same,Production increasing rate,tomato Jinpengshengguan; control = 0,9.80%
same,Average area production,"tomato Jinpengshengguan; during growth of tomato, repeated 6 times",109.65 kg
same,Production increasing rate (comparing with control),winter wheat Jing411,0.28%
same,Average production per mu,winter wheat Jing411,328.67 kg
same,Ear weight in the whole area,corn Jiyuan No. 1,38.1 kg
same,Production increasing rate comparing with urea,corn Jiyuan No. 1; in vivo,0%
same,Production increasing rate,winter wheat 9428; control = 0,10.39%
same,Production increasing rate,winter wheat 9428; general fertilizer = 0,5.99%
same,Production per mu,winter wheat 9428,425 kg
same,Increasing rate comparing with urea,Ventura celery; equal weight as urea,0%
same,Average fresh weight of plants,Ventura celery; equal weight of fertilizers,11.55 kg/20 plants
same,Fresh weight of celery per mu,Ventura celery; in vivo,7703.85 kg
same,Increase rate comparing with control,Ventura celery; in vivo,30.2%
same,Production increased per mu,Ventura celery; over control,1787.56 kg
same,Increase rate,[1],17.07%
same,Average production per mu,[1],487 kg
